Test results taken from ChEMBL document CHEMBL4308841, “Synthesis, in vitro antiproliferative activity, and kinase inhibitory effects of pyrazole-containing diarylureas and diarylamides” (Eur J Med Chem, 2018).

Columns and labels:
BT-549 = test: Growth inhibition of human BT549 cells assessed as cell growth at 10 uM incubated for 48 hrs by sulforhodamine B assay relative to control; type: functional; conditions: BT-549, 48 h, read-out: Activity
SF-268 = test: Growth inhibition of human SF268 cells assessed as cell growth at 100 uM incubated for 48 hrs by sulforhodamine B assay relative to control; type: functional; conditions: SF-268, 48 h, read-out: Activity
SNB-19 = test: Growth inhibition of human SNB19 cells assessed as cell growth at 10 uM incubated for 48 hrs by sulforhodamine B assay relative to control; type: functional; conditions: SNB-19, 48 h, read-out: Activity
NCI-H23 [1] = test: Growth inhibition of human NCI-H23 cells assessed as cell growth at 100 uM incubated for 48 hrs by sulforhodamine B assay relative to control; type: functional; conditions: NCI-H23, 48 h, read-out: Activity
MOLT-4 [2] = test: Growth inhibition of human MOLT4 cells assessed as cell growth at 0.1 uM incubated for 48 hrs by sulforhodamine B assay relative to control; type: functional; conditions: MOLT-4, 48 h, read-out: Activity
HOP-62 = test: Growth inhibition of human HOP62 cells assessed as cell growth at 10 uM incubated for 48 hrs by sulforhodamine B assay relative to control; type: functional; conditions: HOP-62, 48 h, read-out: Activity
M14 = test: Growth inhibition of human M14 cells assessed as cell growth at 10 uM incubated for 48 hrs by sulforhodamine B assay relative to control; type: functional; conditions: M14, 48 h, read-out: Activity
RPMI-8226 = test: Growth inhibition of human RPMI8226 cells assessed as cell growth at 10 uM incubated for 48 hrs by sulforhodamine B assay relative to control; type: functional; conditions: RPMI-8226, 48 h, read-out: Activity
OVCAR-5 [3] = test: Growth inhibition of human OVCAR5 cells assessed as cell growth at 1 uM incubated for 48 hrs by sulforhodamine B assay relative to control; type: functional; conditions: OVCAR-5, 48 h, read-out: Activity
NCI-H23 [4] = test: Growth inhibition of human NCI-H23 cells assessed as cell growth at 10 uM incubated for 48 hrs by sulforhodamine B assay relative to control; type: functional; conditions: NCI-H23, 48 h, read-out: Activity
UACC-257 = test: Growth inhibition of human UACC257 cells assessed as cell growth at 1 uM incubated for 48 hrs by sulforhodamine B assay relative to control; type: functional; conditions: UACC-257, 48 h, read-out: Activity
Malme-3M = test: Growth inhibition of human MALME-3M cells assessed as cell growth at 10 uM incubated for 48 hrs by sulforhodamine B assay relative to control; type: functional; conditions: read-out: Activity
SF-539 = test: Growth inhibition of human SF539 cells assessed as cell growth at 10 uM incubated for 48 hrs by sulforhodamine B assay relative to control; type: functional; conditions: SF-539, 48 h, read-out: Activity
K562 = test: Growth inhibition of human K562 cells assessed as cell growth at 10 uM incubated for 48 hrs by sulforhodamine B assay relative to control; type: functional; conditions: K562, 48 h, read-out: Activity
OVCAR-5 [5] = test: Growth inhibition of human OVCAR5 cells incubated for 48 hrs by sulforhodamine B assay; type: functional, cell-based; conditions: OVCAR-5, 48 h
KM12 = test: Growth inhibition of human KM12 cells assessed as cell growth at 10 uM incubated for 48 hrs by sulforhodamine B assay relative to control; type: functional; conditions: KM12, 48 h, read-out: Activity
NCI/ADR-RES = test: Growth inhibition of human NCI/ADR-RES cells assessed as cell growth at 10 uM incubated for 48 hrs by sulforhodamine B assay relative to control; type: functional; conditions: read-out: Activity
HCC 2998 = test: Growth inhibition of human HCC2998 cells assessed as cell growth at 10 uM incubated for 48 hrs by sulforhodamine B assay relative to control; type: functional; conditions: HCC 2998, 48 h, read-out: Activity
MDA-MB-231 = test: Growth inhibition of human MDA-MB-231 cells assessed as cell growth at 10 uM incubated for 48 hrs by sulforhodamine B assay relative to control; type: functional; conditions: MDA-MB-231, 48 h, read-out: Activity
OVCAR-3 = test: Growth inhibition of human OVCAR3 cells assessed as cell growth at 10 uM incubated for 48 hrs by sulforhodamine B assay relative to control; type: functional; conditions: OVCAR-3, 48 h, read-out: Activity
IGROV-1 = test: Growth inhibition of human IGROV1 cells assessed as cell growth at 10 uM incubated for 48 hrs by sulforhodamine B assay relative to control; type: functional; conditions: IGROV-1, 48 h, read-out: Activity
RXF 393 = test: Growth inhibition of human RXF393 cells assessed as cell growth at 10 uM incubated for 48 hrs by sulforhodamine B assay relative to control; type: functional; conditions: RXF 393, 48 h, read-out: Activity
MCF7 = test: Growth inhibition of human MCF7 cells assessed as cell growth at 10 uM incubated for 48 hrs by sulforhodamine B assay relative to control; type: functional; conditions: MCF7, 48 h, read-out: Activity
NCI-H322M = test: Growth inhibition of human NCI-H322M cells assessed as cell growth at 10 uM incubated for 48 hrs by sulforhodamine B assay relative to control; type: functional; conditions: read-out: Activity
OVCAR-8 = test: Growth inhibition of human OVCAR8 cells assessed as cell growth at 10 uM incubated for 48 hrs by sulforhodamine B assay relative to control; type: functional; conditions: OVCAR-8, 48 h, read-out: Activity
MDA-MB-468 = test: Growth inhibition of human MDA-MB-468 cells assessed as cell growth at 10 uM incubated for 48 hrs by sulforhodamine B assay relative to control; type: functional; conditions: MDA-MB-468, 48 h, read-out: Activity
NCI-H460 = test: Growth inhibition of human NCI-H460 cells assessed as cell growth at 0.01 uM incubated for 48 hrs by sulforhodamine B assay relative to control; type: functional; conditions: NCI-H460, 48 h, read-out: Activity
MOLT-4 [6] = test: Growth inhibition of human MOLT4 cells assessed as cell growth at 0.01 uM incubated for 48 hrs by sulforhodamine B assay relative to control; type: functional; conditions: MOLT-4, 48 h, read-out: Activity
UO-31 [7] = test: Growth inhibition of human UO31 cells assessed as cell growth at 0.1 uM incubated for 48 hrs by sulforhodamine B assay relative to control; type: functional; conditions: UO-31, 48 h, read-out: Activity
UO-31 [8] = test: Growth inhibition of human UO31 cells incubated for 48 hrs by sulforhodamine B assay; type: functional, cell-based; conditions: UO-31, 48 h
SW-620 = test: Growth inhibition of human SW620 cells assessed as cell growth at 10 uM incubated for 48 hrs by sulforhodamine B assay relative to control; type: functional; conditions: SW-620, 48 h, read-out: Activity
TK-10 = test: Growth inhibition of human TK10 cells assessed as cell growth at 10 uM incubated for 48 hrs by sulforhodamine B assay relative to control; type: functional; conditions: TK-10, 48 h, read-out: Activity
[9] = read-out: LC50 (the source's name)
[10] = read-out: pLC50 (the source's name) (converted)

O=C(Nc1cccc(-n2cc(-c3ccncc3)c(-c3cc(O)cc(Cl)c3)n2)c1)Nc1ccc(Cl)c(Cl)c1
growth at 10 µM (BT-549): 0.54%
growth at 100 µM (SF-268): -11%
growth at 10 µM (SNB-19): 30.8%
growth at 100 µM (NCI-H23 [1]): -35%
growth at 0.1 µM (MOLT-4 [2]): 94%
growth at 10 µM (HOP-62): -44.2%
growth at 10 µM (M14): -69.2%
growth at 10 µM (RPMI-8226): -15.3%
growth at 1 µM (OVCAR-5 [3]): 56%
growth at 10 µM (NCI-H23 [4]): -20.4%
growth at 1 µM (UACC-257): 92%
growth at 10 µM (Malme-3M): -35.1%
growth at 10 µM (SF-539): -29%
growth at 10 µM (K562): 1.06%
GI50 (OVCAR-5 [5]; read-out: GI50): 2.14 µM
CC50 (OVCAR-5 [5]; [9]): 5.42 µM
TGI (OVCAR-5 [5]; read-out: TGI): 51.6 µM
GI50 (OVCAR-5 [5]; read-out: pGI50 (converted)): 2.14 µM
CC50 (OVCAR-5 [5]; [10]): 53.7 µM
TGI (OVCAR-5 [5]; read-out: pTGI (converted)): 6.17 µM
growth at 10 µM (KM12): 2.26%
growth at 10 µM (NCI/ADR-RES): 12.8%
growth at 10 µM (HCC 2998): 0.57%
growth at 10 µM (MDA-MB-231): -38.1%
growth at 10 µM (OVCAR-3): -47.4%
growth at 10 µM (IGROV-1): 26%
growth at 10 µM (RXF 393): -70.3%
growth at 10 µM (MCF7): 2.74%
growth at 10 µM (NCI-H322M): 19.5%
growth at 10 µM (OVCAR-8): -14.8%
growth at 10 µM (MDA-MB-468): -1.88%
growth at 0.01 µM (NCI-H460): 102%
growth at 0.01 µM (MOLT-4 [6]): 93%
growth at 0.1 µM (UO-31 [7]): 93%
IC50 (UO-31 [8]): 1.91 µM
GI50 (UO-31 [8]; read-out: GI50): 1.91 µM
CC50 (UO-31 [8]; [9]): > 100 µM
TGI (UO-31 [8]; read-out: TGI): 65.1 µM
GI50 (UO-31 [8]; read-out: pGI50 (converted)): 1.91 µM
CC50 (UO-31 [8]; [10]): > 100 µM
TGI (UO-31 [8]; read-out: pTGI (converted)): 6.46 µM
growth at 10 µM (SW-620): -33.8%

COc1cc(Cl)cc(-c2nn(-c3cccc(NC(=O)c4cccc(C(F)(F)F)c4)c3)cc2-c2ccncc2)c1
growth at 10 µM (TK-10): 72.7%
growth at 10 µM (BT-549): 89.5%
growth at 100 µM (SF-268): 58%
growth at 10 µM (SNB-19): 82.2%
growth at 100 µM (NCI-H23 [1]): 27%
growth at 0.1 µM (MOLT-4 [2]): 95%
growth at 10 µM (HOP-62): 71.6%
growth at 10 µM (M14): 56.3%
growth at 10 µM (RPMI-8226): 31.5%
growth at 1 µM (OVCAR-5 [3]): 96%
growth at 10 µM (NCI-H23 [4]): 55.6%
growth at 1 µM (UACC-257): 92%
growth at 10 µM (Malme-3M): 92.4%
growth at 10 µM (SF-539): 64.2%
growth at 10 µM (K562): 26%
GI50 (OVCAR-5 [5]; read-out: GI50): > 100 µM
CC50 (OVCAR-5 [5]; [9]): > 100 µM
TGI (OVCAR-5 [5]; read-out: TGI): > 100 µM
GI50 (OVCAR-5 [5]; read-out: pGI50 (converted)): > 100 µM
CC50 (OVCAR-5 [5]; [10]): > 100 µM
TGI (OVCAR-5 [5]; read-out: pTGI (converted)): > 100 µM
growth at 10 µM (KM12): 43.7%
growth at 10 µM (NCI/ADR-RES): 46.6%
growth at 10 µM (HCC 2998): 54.6%
growth at 10 µM (MDA-MB-231): 21.4%
growth at 10 µM (OVCAR-3): 52.3%
growth at 10 µM (IGROV-1): 80.7%
growth at 10 µM (RXF 393): 40.5%
growth at 10 µM (MCF7): 39.4%
growth at 10 µM (NCI-H322M): 78.6%
growth at 10 µM (OVCAR-8): 42%
growth at 10 µM (MDA-MB-468): 47%
growth at 0.01 µM (NCI-H460): 101%
growth at 0.01 µM (MOLT-4 [6]): 91%
growth at 0.1 µM (UO-31 [7]): 88%
IC50 (UO-31 [8]): 2.71 µM
GI50 (UO-31 [8]; read-out: GI50): 2.71 µM
CC50 (UO-31 [8]; [9]): > 100 µM
TGI (UO-31 [8]; read-out: TGI): > 100 µM
GI50 (UO-31 [8]; read-out: pGI50 (converted)): 2.69 µM
CC50 (UO-31 [8]; [10]): > 100 µM
TGI (UO-31 [8]; read-out: pTGI (converted)): > 100 µM
growth at 10 µM (SW-620): 77%
